From patent US20260183405A1, “SMALL MOLECULE-DRUG-CONJUGATES CLEAVABLE IN A TUMOR MICROENVIRONMENT” (priority 2022, published 2026)
Where two headings read alike, the source gives them in different places.

Key:
Assay in all cases: Cytotoxicity in vitro in the presence and absence of elastase (MTT assay)
Assay type in all cases: cell-based
[1] = test system: NCI-H292; details: NCI-H292 cells, 72 h incubation
Description: (§1) Cultivation of cells was performed according to standard procedures with the media recommended by the provider. The cells, in a total volume of 100 μL, were seeded in a 96-well plate with a white bottom (#3610). After a 24 h incubation period at 37° C. and 5% CO2, the medium was exchanged by adding 90 μL fresh medium. The treatment started by adding the test compound in 10 μL of culture medium to the cells in triplicates. Concentrations ranging from 10^−5 M to 10^−13 M were chosen. Two identically treated sets of samples were prepared. One set was treated with the test compound alone, whereas to the second set the compound and 10 nM elastase (NE) was added followed by a 72 h incubation period at 37° C. and 5% CO2. The proliferation was detected using the MTT assay (ATCC). At the end of the incubation period the MTT reagent was added to all samples for 4h. Lysis of the cells followed by addition of the detergent was done overnight. The formed dye was detected at 570 nm. The proliferation of untreated but otherwise identically handled cells was defined as the 100% value. The dose response curves allowed the determination of the respective IC50 values. […]

[2] = test system: HT29; details: HT29 cells, 72 h incubation
Description: as §1

[3] = test system: 786-O; details: 786-O cells, 72 h incubation
Description: as §1

[4] = test system: SUM149PT; details: SUM149PT cells, 72 h incubation
Description: as §1

[5] = compound alone, read-out: IC50 without neutrophil elastase
[6] = with 10 nM elastase (NE), read-out: IC50 with neutrophil elastase

`CCCNC(=O)Nc1cccc(S(=O)(=O)Nc2cccc([C@@H](CC(=O)O)NC(=O)Nc3ccc(NC(=O)NCCOCCOCCOCCC(=O)N[C@@H](CC(N)=O)C(=O)N4CCC[C@H]4C(=O)N[C@H](C(=O)N[C@@H](CCN(C(=O)CO)[C@@H](c4cc(-c5cc(F)ccc5F)cn4Cc4ccccc4)C(C)(C)C)C(=O)NC)C(C)C)cc3)c2)c1` [Compound 19, sodium N^2-(14-{4-[({(1R)-2-carboxylato-1-[3-({3-[(propylcarbamoyl)amino]benzene-1-sulfonyl}amino)phenyl]ethyl}carbamoyl)amino]anilino}-14-oxo-4,7,10-trioxa-13-azatetradecanan-1-oyl)-L-asparaginyl-L-prolyl-N-[(2S)-4-[{(1R)-1-[1-benzyl-4-(2,5-difluorophenyl)-1H-pyrrol-2-yl]-2,2-dimethylpropyl}(hydroxyacetyl)amino]-1-(methylamino)-1-oxobutan-2-yl]-L-valinamide] showed an IC50 [1, 5] of over 1000 nM, an IC50 [1, 6] of 0.1 to 1 nM and an IC50 [2, 5] of over 1000 nM. For the same compound, the IC50 [2, 6] was 1 to 9.9 nM, the IC50 [3, 5] was over 1000 nM and the IC50 [3, 6] was 1 to 9.9 nM. The IC50 [4, 5] was over 1000 nM and the IC50 [4, 6] was 0.1 to 1 nM.
With `CCCNC(=O)Nc1cccc(S(=O)(=O)Nc2cccc([C@@H](CC(=O)O)NC(=O)Nc3ccc(NC(=O)NCCOCCOCCOCCC(=O)N[C@@H](CC(=O)O)C(=O)N4CCC[C@H]4C(=O)N[C@H](C(=O)NCCC(C)(C)C(=O)OCCCNC(=O)[C@H](Cc4ccccc4)NC(=O)[C@H](C)[C@@H](OC)[C@@H]4CCCN4C(=O)C[C@@H](OC)[C@H]([C@@H](C)CC)N(C)C(=O)[C@@H](NC(=O)[C@H](C(C)C)N(C)C)C(C)C)C(C)C)cc3)c2)c1` [Compound 31] the IC50 [1, 5] was 10 to 99 nM, the IC50 [1, 6] was 0.1 to 1 nM and the IC50 [2, 5] was 10 to 99 nM. The IC50 [2, 6] was 0.1 to 1 nM, the IC50 [3, 5] was 100 to 999 nM and the IC50 [3, 6] was 10 to 99 nM. The IC50 [4, 5] was 10 to 99 nM and the IC50 [4, 6] was 0.1 to 1 nM.
`CCCNC(=O)Nc1cccc(S(=O)(=O)Nc2cccc([C@@H](CC(=O)O)NC(=O)Nc3ccc(NC(=O)NCCOCCOCCOCCC(=O)N[C@@H](CC(=O)O)C(=O)N4CCC[C@H]4C(=O)N[C@H](C(=O)OC(C)(C)CCNC(=O)[C@H](Cc4ccccc4)NC(=O)[C@H](C)[C@@H](OC)[C@@H]4CCCN4C(=O)C[C@@H](OC)[C@H]([C@@H](C)CC)N(C)C(=O)[C@@H](NC(=O)[C@H](C(C)C)N(C)C)C(C)C)C(C)C)cc3)c2)c1` [Compound 32] showed an IC50 [1, 5] of 10 to 99 nM, an IC50 [1, 6] of 1 to 9.9 nM and an IC50 [2, 5] of 10 to 99 nM. The IC50 [2, 6] was 1 to 9.9 nM, the IC50 [3, 5] was 100 to 999 nM and the IC50 [3, 6] was 10 to 99 nM. The IC50 [4, 5] was 10 to 99 nM and the IC50 [4, 6] was 1 to 9.9 nM.
`CCCNC(=O)Nc1cccc(S(=O)(=O)Nc2cccc([C@@H](CC(=O)O)NC(=O)Nc3ccc(NC(=O)NCCOCCOCCOCCC(=O)N[C@@H](CC(=O)O)C(=O)N4CCC[C@H]4C(=O)N[C@H](C(=O)OCCCNC(=O)[C@H](Cc4ccccc4)NC(=O)[C@H](C)[C@@H](OC)[C@@H]4CCCN4C(=O)C[C@@H](OC)[C@H]([C@@H](C)CC)N(C)C(=O)[C@@H](NC(=O)[C@H](C(C)C)N(C)C)C(C)C)C(C)C)cc3)c2)c1` [Compound 30] gave an IC50 [1, 5] of 10 to 99 nM, an IC50 [1, 6] of 1 to 9.9 nM and an IC50 [2, 5] of 100 to 999 nM. The IC50 [2, 6] was 1 to 9.9 nM, the IC50 [3, 5] was 100 to 999 nM and the IC50 [3, 6] was 10 to 99 nM. The IC50 [4, 5] was 10 to 99 nM and the IC50 [4, 6] was 1 to 9.9 nM.
`CC[C@@]1(OC(=O)[C@@H](NC(=O)[C@@H]2CCCN2C(=O)[C@H](CC(=O)O)NC(=O)CCOCCOCCOCCNC(=O)NCCCC[C@H](NC(=O)N[C@@H](CCC(=O)O)C(=O)O)C(=O)O)C(C)C)C(=O)OCc2c1cc1n(c2=O)Cc2c-1nc1cc(F)c(C)c3c1c2[C@@H](N)CC3` [Compound 11, tetrasodium (1S,9S)-1-amino-9-ethyl-5-fluoro-4-methyl-10,13-dioxo-2,3,9,10,13,15-hexahydro-1H,12H-benzo[de]pyrano[3′,4′:6,7]indolizino[1,2-b]quinolin-9-yl 1-[(2S,23S,27S)-23,27,29-tricarboxylato-2-(carboxylatomethyl)-4,17,25-trioxo-7,10,13-trioxa-3,16,18,24,26-pentaazanonacosanan-1-oyl]-L-prolyl-L-valinate] gave an IC50 [1, 5] of 100 to 999 nM, an IC50 [1, 6] of 1 to 9.9 nM and an IC50 [2, 5] of over 1000 nM. For the same compound, the IC50 [2, 6] was 10 to 99 nM, the IC50 [3, 5] was 100 to 999 nM and the IC50 [3, 6] was 1 to 9.9 nM. It also gave an IC50 [4, 5] of 100 to 999 nM and an IC50 [4, 6] of 1 to 9.9 nM.
For `CC(C)[C@H](NC(=O)[C@@H]1CCCN1C(=O)[C@H](CC(=O)O)NC(=O)CCOCCOCCOCCNC(=O)NCCCC[C@H](NC(=O)N[C@@H](CCC(=O)O)C(=O)O)C(=O)O)C(=O)N=S(C)(=O)Cc1cc2nc(c1)OCCCOc1cc(F)ccc1-c1cc(ncc1F)N2` (relative stereo) [Compound 9, tetrasodium 1-[(2S,23S,27S)-23,27,29-tricarboxylato-2-(carboxylatomethyl)-4,17,25-trioxo-7,10,13-trioxa-3,16,18,24,26-pentaazanonacosanan-1-oyl]-L-prolyl-N—[(R*)—{[15,19-difluoro-3,4-dihydro-2H,11H-10,6-(azeno)-12,16-(metheno)-1,5,11,13-benzodioxadiazacyclooctadecin-8-yl]methyl}(methyl)oxo-lambda6-sulfanylidene]-L-valinamide], the IC50 [1, 5] was 100 to 999 nM, the IC50 [1, 6] was 1 to 9.9 nM and the IC50 [2, 5] was 100 to 999 nM. For the same compound, the IC50 [2, 6] was 1 to 9.9 nM, the IC50 [3, 5] was 100 to 999 nM and the IC50 [3, 6] was 1 to 9.9 nM. The IC50 [4, 5] was 100 to 999 nM and the IC50 [4, 6] was 1 to 9.9 nM.
Work on `CCc1c2c(nc3ccccc13)-c1cc3c(c(=O)n1C2)COC(=O)[C@@]3(CC)OC(=O)[C@@H](NC(=O)[C@@H]1CCCN1C(=O)[C@H](CC(=O)O)NC(=O)CCOCCOCCOCCNC(=O)NC[C@H](NC(=O)CCCCNc1cc(C)ccn1)C(=O)N[C@@H](CC(=O)O)c1cc(Cl)cc(Cl)c1)C(C)C` [Compound 29, disodium (4S)-4,11-diethyl-3,14-dioxo-3,4,12,14-tetrahydro-1H-pyrano[3′,4′:6,7]indolizino[1,2-b]quinolin-4-yl 1-{(2S,20S)-20-{[(1S)-2-carboxylato-1-(3,5-dichlorophenyl)ethyl]carbamoyl}-2-(carboxylatomethyl)-26-[(4-methylpyridin-2-yl)amino]-4,17,22-trioxo-7,10,13-trioxa-3,16,18,21-tetraazahexacosanan-1-oyl}-L-prolyl-L-valinate] yielded an IC50 [1, 5] of 100 to 999 nM, an IC50 [1, 6] of 1 to 9.9 nM and an IC50 [2, 5] of over 1000 nM. The IC50 [2, 6] was 10 to 99 nM, the IC50 [3, 5] was 100 to 999 nM and the IC50 [3, 6] was 1 to 9.9 nM. The IC50 [4, 5] was 100 to 999 nM and the IC50 [4, 6] was 1 to 9.9 nM.
Work on `CCCNC(=O)Nc1cccc(S(=O)(=O)Nc2cccc([C@@H](CC(=O)O)NC(=O)Nc3ccc(NC(=O)NCCOCCOCCOCCC(=O)N[C@@H](CC(N)=O)C(=O)N4CCC[C@H]4C(=O)N[C@H](C(=O)NCCCN(C(=O)CO)[C@@H](c4cc(-c5cc(F)ccc5F)cn4Cc4ccccc4)C(C)(C)C)C(C)C)cc3)c2)c1` [Compound 16, N^2-(14-{4-[({(1R)-2-carboxy-1-[3-({3-[(propylcarbamoyl)amino]benzene-1-sulfonyl}amino)phenyl]ethyl}carbamoyl)amino]anilino}-14-oxo-4,7,10-trioxa-13-azatetradecanan-1-oyl}-L-asparaginyl-L-prolyl-N-{3-[{(1R)-1-[1-benzyl-4-(2,5-difluorophenyl)-1H-pyrrol-2-yl]-2,2-dimethylpropyl}(hydroxyacetyl)amino]propyl}-L-valinamide] yielded an IC50 [1, 5] of 100 to 999 nM, an IC50 [1, 6] of 1 to 9.9 nM and an IC50 [2, 5] of over 1000 nM. For the same compound, the IC50 [2, 6] was 1 to 9.9 nM, the IC50 [3, 5] was over 1000 nM and the IC50 [3, 6] was 1 to 9.9 nM. It also gave an IC50 [4, 5] of 100 to 999 nM and an IC50 [4, 6] of 0.1 to 1 nM.
For `CCCNC(=O)Nc1cccc(S(=O)(=O)Nc2cccc([C@@H](CC(=O)O)NC(=O)Nc3ccc(NC(=O)NCCOCCOCCOCCC(=O)N[C@@H](CCC(=O)NCCOCCOCCOCCC(=O)N[C@@H](CC(=O)O)C(=O)N4CCC[C@H]4C(=O)N[C@H](C(=O)O[C@]4(CC)C(=O)OCc5c4cc4n(c5=O)Cc5c-4nc4ccccc4c5CC)C(C)C)C(=O)NCCOCCOCCOCCC(=O)N[C@@H](CC(=O)O)C(=O)N4CCC[C@H]4C(=O)N[C@H](C(=O)O[C@]4(CC)C(=O)OCc5c4cc4n(c5=O)Cc5c-4nc4ccccc4c5CC)C(C)C)cc3)c2)c1` [Compound 3], the IC50 [1, 5] was 100 to 999 nM, the IC50 [1, 6] was 1 to 9.9 nM and the IC50 [2, 5] was 100 to 999 nM. For the same compound, the IC50 [2, 6] was 1 to 9.9 nM, the IC50 [3, 5] was 100 to 999 nM and the IC50 [3, 6] was 1 to 9.9 nM. It also gave an IC50 [4, 5] of 10 to 99 nM and an IC50 [4, 6] of 1 to 9.9 nM.
`CCc1c2c(nc3ccccc13)-c1cc3c(c(=O)n1C2)COC(=O)[C@@]3(CC)OC(=O)[C@@H](NC(=O)[C@@H]1CCCN1C(=O)[C@H](CC(=O)O)NC(=O)CCOCCOCCOCCNC(=O)CCC(=O)Nc1nnc(S(N)(=O)=O)s1)C(C)C` [Compound 4, sodium (4S)-4,11-diethyl-3,14-dioxo-3,4,12,14-tetrahydro-1H-pyrano[3′,4′:6,7]indolizino[1,2-b]quinolin-4-yl 1-{(2S)-2-(carboxylatomethyl)-4,17,20-trioxo-20-[(5-sulfamoyl-1,3,4-thiadiazol-2-yl)amino]-7,10,13-trioxa-3,16-diazaicosanan-1-oyl}-L-prolyl-L-valinate] was tested, and the IC50 [1, 5] was 100 to 999 nM, the IC50 [1, 6] was 1 to 9.9 nM and the IC50 [2, 5] was over 1000 nM. For the same compound, the IC50 [2, 6] was 10 to 99 nM, the IC50 [3, 5] was 100 to 999 nM and the IC50 [3, 6] was 1 to 9.9 nM. The IC50 [4, 5] was 100 to 999 nM and the IC50 [4, 6] was 1 to 9.9 nM.
